Activity calls are given as the source filed them. The rule behind the calls is not given here.
Legend:
[1] = system: THP-1; test: Cytotoxicity against human THP1 cells at 2 uM after 24 hrs by WST assay; assay type: cell-based; settings: thp-1, 24 h
[2] = system: THP-1; test: Antiinflammatory activity in differentiated human THP1 cells assessed as inhibition of LPS-induced ROS level at 2 uM pretreated for 1 hr measured after 24 hrs of LPS stimulation by fluorescence assay; assay type: functional, cell-based
[3] = system: THP-1; test: Antiinflammatory activity in differentiated human THP1 cells assessed as inhibition of LPS-induced IkappaB degradation at 2 uM pretreated for 1 hr measured after 30 mins of LPS stimulation by Western blot analysis; assay type: functional, cell-based
[4] = system: THP-1; test: Antiinflammatory activity in differentiated human THP1 cells assessed as inhibition of LPS-induced TNFalpha secretion at 2 uM after 24 hrs by ELISA; assay type: functional, cell-based
[5] = system: THP-1; test: Cytotoxicity against human THP1 cells assessed as cell viability after 24 hrs by WST assay; assay type: cell-based; settings: THP-1, 24 h
[6] = system: THP-1; test: Antiinflammatory activity in differentiated human THP1 cells assessed as inhibition of LPS-induced TNFalpha mRNA expression at 2 uM after 4 hrs by RT-qPCR analysis; assay type: functional, cell-based
[7] = system: THP-1; test: Antiinflammatory activity in differentiated human THP1 cells assessed as inhibition of LPS-induced NFkappaB activation at 2 uM pretreated for 1 hr measured after 4 hrs of LPS stimulation by DAPI-staining based immunohistochemical analysis; assay type: functional, cell-based
[8] = system: THP-1; test: Cytotoxicity against human THP1 cells assessed as increase in ROS level at 2 uM; assay type: cell-based; settings: thp-1, 2 µM

`COc1cc([C@@H]2CC(=O)c3c(cc(O)c(C/C=C(\C)CCC=C(C)C)c3O)O2)ccc1O` was tested, and the Activity [1] was “Non-toxic”, the Activity [2] was “inactive” and the Activity [3] was “Active”. For the same molecule, the Activity [4] was “Active”, the IC50 [5] was under 10 µM and the Activity [6] was “Active”. For the same molecule, the Activity [7] was “Active”.
For `C/C(=C\Cc1c(O)cc2c(c1O)C(=O)C[C@@H](c1ccc(O)cc1)O2)CCC(O)C(C)(C)O` (stereo partly drawn), the Activity [1] was “Non-toxic” and the IC50 [5] was over 10 µM.
In the case of `COc1cc([C@@H]2CC(=O)c3c(cc(O)c(C/C=C(\C)CCC=C(C)C)c3O)O2)cc(OC)c1O`, the Activity [1] is reported as “Non-toxic”, the Activity [4] is reported as “Active” and the IC50 [5] is reported as under 10 µM.
With `COC(C)(C)C(O)CC/C(C)=C/Cc1c(O)cc2c(c1O)C(=O)C[C@@H](c1ccc(O)cc1)O2` (stereo partly drawn) the Activity [1] was “Non-toxic” and the IC50 [5] was over 10 µM.
For `O=C1C[C@@H](c2ccc(O)cc2)Oc2cc(O)cc(O)c21` [NARINGENIN], the Activity [1] was “Non-toxic” and the IC50 [5] was over 10 µM.
With `COc1cc(C2CC(=O)c3c(cc(O)c(C/C=C(\C)CCC(O)C(C)(C)OC)c3O)O2)cc(OC)c1O` (stereo not drawn) the Activity [1] was “Non-toxic” and the IC50 [5] was over 10 µM.
In the case of `C=C(CCC=C(C)C)C(O)Cc1c(O)cc2c(c1O)C(=O)C[C@@H](c1ccc(O)cc1)O2` (stereo partly drawn), the Activity [1] is reported as “Non-toxic”, the Activity [8] is reported as “Toxic” and the Activity [3] is reported as “Active”. The Activity [4] was “Active”, the IC50 [5] was over 11.4 µM and the Activity [6] was “Active”. For the same molecule, the Activity [7] was “Active”.
`COc1cc([C@@H]2CC(=O)c3c(cc(O)c(C/C=C(\C)C/C=C/C(C)(C)O)c3O)O2)ccc1O` [TOMENTODIPLACONE B] was tested, and the Activity [1] was “Non-toxic”, the Activity [4] was “Active” and the IC50 [5] was over 10 µM.
In the case of `C=C(C)C1CCC(C)(C(O)Cc2c(O)cc3c(c2O)C(=O)C[C@@H](c2ccc(O)c(OC)c2)O3)O1` (stereo partly drawn), the Activity [1] is reported as “Non-toxic” and the IC50 [5] is reported as over 10 µM.
In the case of `COc1cc([C@@H]2CC(=O)c3c(cc(O)c(C/C=C(\C)CCC=C(C)C)c3O)O2)cc(O)c1OC`, the Activity [1] is reported as “Non-toxic”, the Activity [3] is reported as “Active” and the IC50 [5] is reported as under 10 µM. For the same molecule, the Activity [6] was “Active” and the Activity [7] was “Active”.
In the case of `COc1cc(C2CC(=O)c3c(cc(O)c(C/C=C(\C)CCC(O)C(C)(C)O)c3O)O2)cc(OC)c1O` (stereo not drawn), the Activity [1] is reported as “Non-toxic” and the IC50 [5] is reported as over 10 µM.
In the case of `CC(C)=CCC/C(C)=C/Cc1c(O)cc2c(c1O)C(=O)C[C@@H](c1ccc(O)cc1)O2` [BONANNIONE A], the Activity [1] is reported as “Non-toxic” and the IC50 [5] is reported as under 10 µM.
In the case of `COc1cc([C@@H]2CC(=O)c3c(cc4c(c3O)CC(C(C)(O)CCC=C(C)C)O4)O2)ccc1O` (stereo partly drawn), the Activity [1] is reported as “Non-toxic” and the IC50 [5] is reported as under 10 µM.
For `COc1cc([C@@H]2CC(=O)c3c(cc(O)c(C/C=C(\C)CCC(O)C(C)(C)OC)c3O)O2)ccc1O` (stereo partly drawn), the Activity [1] was “Non-toxic” and the IC50 [5] was over 10 µM.
For `COc1cc([C@H]2Oc3cc4c(c(O)c3C(=O)[C@@H]2O)C=CC(C)(CCC=C(C)C)O4)ccc1O` (stereo partly drawn), the Activity [1] was “Non-toxic”, the Activity [4] was “Active” and the IC50 [5] was over 10 µM.
With `COc1ccc([C@@H]2CC(=O)c3c(cc(O)c(C/C=C(\C)CCC=C(C)C)c3O)O2)cc1OC` the Activity [1] was “Non-toxic”, the Activity [4] was “Active” and the IC50 [5] was under 10 µM.
`C=C(CCC=C(C)C)C(O)Cc1c(O)cc2c(c1O)C(=O)C[C@@H](c1ccc(O)c(OC)c1)O2` (stereo partly drawn) was tested, and the Activity [1] was “Non-toxic” and the IC50 [5] was under 6.5 µM.
`CC(C)=CCCC1(C)C=Cc2c(cc3c(c2O)C(=O)C[C@@H](c2cc(O)cc(O)c2)O3)O1` (stereo partly drawn) was tested, and the Activity [1] was “Non-toxic” and the IC50 [5] was over 10 µM.
In the case of `COc1cc([C@@H]2CC(=O)c3c(cc(O)c(CC=C(C)C)c3O)O2)ccc1O`, the Activity [1] is reported as “Non-toxic” and the IC50 [5] is reported as over 10 µM.
`CC(C)=CCC/C(C)=C/Cc1c(O)cc2c(c1O)C(=O)C[C@@H](c1ccc(O)c(O)c1)O2` [NYMPHAEOL A] was tested, and the Activity [1] was “Non-toxic”, the Activity [2] was “inactive” and the Activity [3] was “Active”. For the same molecule, the IC50 [5] was over 10 µM, the Activity [6] was “Active” and the Activity [7] was “Active”.
`O=C1C[C@@H](c2ccc(O)c(O)c2)Oc2cc(O)cc(O)c21` [ERIODICTYOL] was tested, and the Activity [1] was “Non-toxic” and the IC50 [5] was over 10 µM.
`COc1cc([C@@H]2CC(=O)c3c(cc4c(c3O)CC(O)C(C)(CCC=C(C)C)O4)O2)ccc1O` (stereo partly drawn) was tested, and the Activity [1] was “Non-toxic”, the Activity [8] was “Toxic” and the Activity [2] was “inactive”. The Activity [3] was “Active”, the Activity [4] was “Active” and the IC50 [5] was under 10 µM. The Activity [6] was “Active” and the Activity [7] was “Active”.
In the case of `COc1cc([C@H]2Oc3cc(O)c(C/C=C(\C)CCC=C(C)C)c(O)c3C(=O)[C@@H]2O)ccc1O`, the Activity [1] is reported as “Non-toxic”, the Activity [4] is reported as “Active” and the IC50 [5] is reported as under 10 µM.
`CC(C)=CCCC(C)(O)C1Cc2c(cc3c(c2O)C(=O)CC(c2ccc(O)cc2)O3)O1` (stereo not drawn) was tested, and the Activity [1] was “Non-toxic” and the IC50 [5] was over 10 µM.
In the case of `COc1cc([C@@H]2CC(=O)c3c(O)cc(O)cc3O2)cc(OC)c1OC`, the Activity [1] is reported as “Non-toxic” and the IC50 [5] is reported as over 10 µM.
